Test results from US20260124170A1, “PHARMACEUTICAL COMPOSITION COMPRISING METABOLITE OF ENAVOGLIFLOZIN, AND USE THEREOF” (DAEWOONG PHARMACEUTICAL CO., LTD., priority 2022, published 2026).
Entries after “also recorded” stand apart in the source; their conditions may differ.

Experiments:
SGLT2 [1] = molecular target: T1, SGLT2 (Homo sapiens, UniProt P31639); assay: Inhibition of [14C]AMG uptake in SGLT2-overexpressing CHO cells; type: cell-based; settings: for IC50: CHO-SGLT2 cells, 10 μM [14C]AMG, 2 h, 37° C.; for IC50 ratio (SGLT1/SGLT2): ratio of SGLT1 IC50 to SGLT2 IC50
T1 construct: expressed in transfected cells
T1 sequence (P31639 1-672): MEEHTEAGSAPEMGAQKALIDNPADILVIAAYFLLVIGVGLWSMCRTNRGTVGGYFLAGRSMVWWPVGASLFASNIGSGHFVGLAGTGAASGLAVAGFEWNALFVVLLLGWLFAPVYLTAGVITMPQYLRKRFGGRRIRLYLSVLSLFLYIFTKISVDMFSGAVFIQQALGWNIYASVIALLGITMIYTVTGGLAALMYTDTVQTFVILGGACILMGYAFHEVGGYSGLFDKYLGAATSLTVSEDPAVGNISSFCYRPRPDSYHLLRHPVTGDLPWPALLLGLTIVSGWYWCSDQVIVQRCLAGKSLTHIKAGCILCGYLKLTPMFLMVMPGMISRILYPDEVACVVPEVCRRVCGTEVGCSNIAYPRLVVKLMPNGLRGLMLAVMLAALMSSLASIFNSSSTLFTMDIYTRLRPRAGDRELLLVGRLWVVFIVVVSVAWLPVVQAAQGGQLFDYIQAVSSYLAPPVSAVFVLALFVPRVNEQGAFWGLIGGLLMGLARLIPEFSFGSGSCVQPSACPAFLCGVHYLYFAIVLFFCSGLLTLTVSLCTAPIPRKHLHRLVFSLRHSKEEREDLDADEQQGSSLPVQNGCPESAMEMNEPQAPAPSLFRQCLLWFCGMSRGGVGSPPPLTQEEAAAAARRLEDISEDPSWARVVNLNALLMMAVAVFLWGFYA
Protocol: The evaluation was performed in the same manner as the evaluation of SGLT1 inhibition, except that an SGLT2-overexpressing cell line (CHO-SGLT2 stable cells) was used, and the inhibitory evaluation substances described below were used.

normal rats [2] = assay: Oral glucose tolerance test (OGTT) after intravenous administration; type: in vivo, rat; settings: 1 mg/kg intravenous; for Glucose tolerance inhibition rate improved compared to the vehicle (blood glucose AUC): AUC for 120 minutes; for Glucose tolerance in OGTT: glucose 2 g/kg
Protocol: (§1) Enavogliflozin, M1, or M2 was intravenously administered once to normal rats, and antidiabetic efficacy was evaluated.
(§2) To perform the oral glucose tolerance test (OGTT) and examine urinary glucose excretion (UGE), enavogliflozin, M1, or M2 was administered intravenously to male 8-week-old normal rats at a dose of 1 mg/kg, and then a glucose solution (2 g/kg) was administered to load blood sugar. The blood sugar level was measured before glucose solution administration and at 5, 10, 15, 20, 30, 40, 60, 90, and 120 minutes after the administration to evaluate oral glucose tolerance. In addition, the UGE was evaluated by measuring the amount of glucose excreted in the urine 6, 24, 48, and 72 hours after the administration of the glucose solution.

[3] = Half-life of M2 (rapid dissipation); settings: in vivo
normal rats [4] = assay: Urinary glucose excretion (UGE) after intravenous administration; type: in vivo, rat; settings: 1 mg/kg intravenous, 6-72 hours
Protocol: as §1, §2

SGLT2 [5] = molecular target: T1, SGLT2; assay: Applicant's preliminary study of SGLT2 inhibition, intracellular retention and activity recovery; type: cell-based
interleukin-6 (IL-6) = assay: Serum IL-6 ELISA in type 1 diabetic rat model; type: in vivo; settings: STZ rats, 6, 24, 48, 72 hours after administration
Protocol: (§3) STZ was administered to Sprague Dawley (SD) male 5-week-old rats on day 0 (G2 to G7, excluding G1), and non-fasting blood glucose levels were measured on day 3 to determine whether type 1 diabetes was induced. On day 7, the experimental substances were administered to each group, and blood and urine samples were collected at 6 h, 24 h, 48 h, and 72 h to measure non-fasting blood glucose levels. On day 14 of the experiment, the experimental animals were fasted for 16 h, and on day 15, 2 g/kg of glucose solution was orally administered after the experimental substances were administered. Thereafter, blood glucose levels were measured at 15, 30, 60, 90, and 120 minutes after glucose administration. After blood collection, the serum was separated, and the IL-6 inflammatory response was evaluated using an interleukin-6 (IL-6) enzyme-linked immunosorbent assay (ELISA) kit.

[6] = test system: STZ-induced type 1 diabetic rats; assay: Oral glucose tolerance test in type 1 diabetic rat model; type: in vivo; settings: for Blood glucose level in OGTT: glucose 2 g/kg oral
Protocol: as §3

[7] = test system: STZ-induced type 1 diabetic rats; assay: Non-fasting blood glucose in type 1 diabetic rat model; type: in vivo; settings: 1 mg/kg single intravenous dose
Protocol: as §3

Structure (SMILES) | IC50 (SGLT2 [1]) [nM] | IC50 ratio (SGLT1/SGLT2) (SGLT2 [1]) | Glucose tolerance inhibition rate improved compared to the vehicle (blood glucose AUC) (normal rats [2]) [%] | Glucose tolerance in OGTT (normal rats [2]; 1 mg/kg) | half-life [3] [min] | Urinary glucose excretion (UGE) (normal rats [4]) | Amount of drug remaining in the cells (SGLT2 [5]; after culturing for 24 hours, compared to dapagliflozin and ipragliflozin) | Inhibition mechanism of SGLT2 (Dixon plot and Replot) (SGLT2 [5]; preliminary study) | Change in inhibition after pretreatment (SGLT2 [5]; pretreatment for up to two hours, preliminary study) | Change in IL-6 level (interleukin-6 (IL-6)) | Blood glucose level in OGTT ([6]; STZ rats, 1 mg/kg) | Glucose tolerance in OGTT (normal rats [2]) | AUC of blood glucose in OGTT ([6]; STZ rats, 1 mg/kg) | Dose dependence of glucose tolerance in OGTT ([6]; STZ rats, 0.01, 0.1, 1 mg/kg) | Non-fasting blood sugar level [7] | Glucose tolerance in OGTT (normal rats [2]; listed as Metabolite M1, 1 mg/kg)
OC[C@H]1O[C@@H](c2cc(Cc3ccc(C4(O)CC4)cc3)c(Cl)c3c2CCO3)[C@H](O)[C@@H](O)[C@@H]1O [M2, (2S,3R,4R,5S,6R)-2-(7-chloro-6-(4-(1-hydroxycyclopropyl)benzyl)-2,3-dihydrobenzofuran-4-yl)-6-(hydroxymethyl)tetrahydro-2H-pyran-3,4,5-triol] | 3.02 ± 0.36 | 402 | 23 | improved glucose tolerance | 48 | UGE was observed from six hours after intravenous administration; also recorded: less glucose was excreted than enavogliflozin and M1 for up to 24 hours | – | – | – | – | – | – | – | – | – | –
OC[C@H]1O[C@@H](c2cc(Cc3ccc(C4CC4)cc3)c(Cl)c3c2CCO3)[C@H](O)[C@@H](O)[C@@H]1O [Enavogliflozin, (2S,3R,4R,5S,6R)-2-(7-chloro-6 (4-cyclopropylbenzyl)-2,3-dihydrobenzofuran-4-yl)-6-(hydroxymethyl)tetrahydro-2H-pyran-3,4,5-triol] | 0.34 ± 0.08 | 2538 | 27 | – | – | – | significantly higher | reversible competitive inhibition mechanism | no change in inhibition | slight decrease | lowering of the blood glucose level was observed | improved glucose tolerance | – | – | – | –
OC[C@H]1O[C@@H](c2cc(Cc3ccc(C4CC4)cc3)c(Cl)c3c2CC(O)O3)[C@H](O)[C@@H](O)[C@@H]1O (stereo partly drawn) [M1, (2S,3R,4R,5S,6R)-2-(7-chloro-6-(4-cyclopropylbenzyl)-2-hydroxy-2,3-dihydrobenzofuran-4-yl)-6-(hydroxymethyl)tetrahydro-2H-pyran-3,4,5-triol] | 4.71 ± 0.69 | 6.0 | 49 | improved glucose tolerance | – | UGE was observed from six hours after intravenous administration; also recorded: similar | – | – | – | significant decrease in all dose groups | fastest and strongest blood glucose lowering effect | – | best oral glucose tolerance improvement effect | dose-dependent improvement in glucose tolerance | lowest blood sugar level at 48 hours after administration | superior glucose tolerance to enavogliflozin
